Results published in patent US8408292B2, “Method for pre-treatment of subterranean sites adjacent to water injection wells” (E.I. du Pont de Nemours and Company, priority 2010, dated 2013).

Experiments:
[1] = Example 5: titration of sand/amine/brine mixture with 10% acetic acid, amine in solution by GC; conditions: core sand in brine #2, titrated with 10 wt % acetic acid
Description: (§1) Concentration of amines, in media and water, were analyzed by gas chromatography (GC). An Agilent Model 5890 (Agilent, Wilmington, Del.), GC equipped with a […] and a split/splitless injector, a DB-FFAP column (30 meter length×0.32 millimeter (mm) […]×0.25 micrometer particle size). […] The system was calibrated using a sample of N,N-Dimethyl-1-Dodecaneamine (Aldrich). Helium was used as the carrier gas. A temperature gradient of 50 degrees Celsius (° C.) to 250° C. at 30° C. increase per minute (min) was used.
The same procedure outlined in Example 4 was repeated here to produce the sand/amine mixture. 30.85 grams (gr) of the sand/amine mixture was added to 100 ml of brine #2 (Table 3) to create the sand/amine/brine mixture.

[2] = Example 4: titration of sand/amine/brine mixture with 10% nitric acid, amine in solution by GC; conditions: core sand in brine #2, titrated with 10 wt % nitric acid
Description: as §1
The procedure outlined in Example 2 was used to produce the sand/amine mixture except that 519 mg of the amine, 10 gr of Pentane. and 60.062 gr of sand from the Oa and Ob layers were used. 29.065 gr of this sand/amine mixture was added to 100 ml of brine #2 (Table 3) to create the sand/amine/brine mixture. […] The concentration of the amine in the water should have been about […] if all the amine was dissolved in brine #2. […] 0.1 ml of 10 weight percent (wt %) nitric acid in water was added to this solution, and the pH and the amine concentration were measured again.

[3] = Example 2: titration of amine coated core sand in brine #2 with 1N HCl, amine in solution by GC; assay type: physicochemical; conditions: core sand in brine #2, titrated with 1N HCl
Description: Helium was used as the carrier gas.
38 milligrams (mg) of N N-Dimethyl-1-Dodecanamine (hereafter referred to as “the amine”) was added to 10.210 gr of Pentane. This solution was added to 10.1845 gr of specific sand layers (Oa and Ob) obtained from the Schrader Bluff formation of the Milne Point Unit of the Alaskan North slope. The oil content of the sand was first removed using a mixture of methanol and toluene (50/50, volume/volume) as solvent washes. The solvent mixture was subsequently evaporated off the core sand to produce clean, dry, flowable core sand. This sand was mixed with the amine and pentane solution to produce a slurry. This slurry was thoroughly mixed and the pentane was evaporated off leaving the amine on the sand (hereafter referred to as sand/amine mixture). 100 ml of brine #2 (Table 3) was added to the sand/amine mixture to create the sand/amine/brine mixture. […] The fact that the amine was not detected underlined its strong binding to the sand particles. […] The data underlines the remarkable efficiency of an acid at ionizing and removing the amine from the sand.

## CCCCCCCCCCCCN(C)C [N-N-dimethyl-1-dodeanamine, N N-Dimethyl-1-Dodecanamine]
[1]
  pH below which complete ionization and solubilization in the water of the amine was observed: ~6.7 pH
[2]
  pH below which complete ionization and solubilization in the water of the amine was observed: ~6.7 pH
[3]
  pH below which complete ionization and solubilization of the amine in the water was observed: ~6.0 pH
